Assay [1] has as its system Radical scavenging activity. Put plainly: DPPH radical scavenging activity in liposome. Format: functional. On the technique in general: The DPPH test is a chemical assay of radical scavenging.
Assay [2] deals with Radical scavenging activity. Put plainly: DPPH radical scavenging activity in ethanol solution. Format: functional.

From ChEMBL document CHEMBL1146853, “Proton dissociation is important to understanding structure-activity relationships of gallic acid antioxidants” (Bioorg Med Chem Lett, 2006) come the findings set out here.

Consider `COc1cc(C(=O)O)cc(O)c1OC`, for which the IC50 entry in assay [1] and in assay [2] was “Not Active” throughout.

Consider `COc1cc(C(=O)O)cc(OC)c1OC` [3,4,5-TRIMETHOXYBENZOIC ACID], for which the IC50 result in assay [1] and in assay [2] was “Not Active” each time.

Take `COC(=O)c1cc(O)c(O)c(O)c1` [GALLIC ACID METHYL ESTER]: the IC50 in assay [1] (read-out: IC50) was 8.4 µM; in assay [2] (read-out: IC50), 7.2 µM.

`O=C(O)c1cc(O)c(O)c(O)c1` [GALLIC ACID]: the IC50 in assay [1] (read-out: IC50) stood at 7.3 µM; in assay [2] (read-out: IC50), 6 µM.

For the molecule `COc1cc(C(=O)O)cc(OC)c1O` [SYRINGIC ACID], the figures for the IC50 in assay [1] (read-out: IC50) and in assay [2] (read-out: IC50) were 7.4 µM and 7.3 µM, respectively.

Usually IC50 stands for the concentration needed to halve the response being measured.
